In patent publication US12234208B2, “3,4-dihydroxy-n-(1′-benzyl-2′-hydroxyethyl)-2-methylpyridine chloride, and synthesis and use thereof” (HANGZHOU ZEDE PHARMA-TECH CO. LTD., priority 2020, dated 2025):
“Also recorded” adds a separate entry of the source.

Tests used:
chronic MPTP mouse model [1] = assay: Morris water maze test in chronic MPTP mouse model; assay type: in vivo, C57/BL mice; settings: Compound A 100 mg/kg/d p.o. for one month; FIG. 2; 100 mg/kg/day
Procedure: A chronic MPTP (1-methyl-4-phenyl-1,2,3,6-tetrahydropyridine) mouse model was prepared to simulate PD. 250 mg/kg probenecid was intraperitoneally injected into the mice and then 25 mg/kg MPTP was intraperitoneally injected 0.5 hour later. Injection was implemented every 3.5 days for 5 weeks. MPTP was converted into metabolite MPP^+ by monoamine oxidase B in glial cells after crossing the blood-brain barrier. Due to its high affinity for dopamine transporters, MPP^+ can easily enter dopaminergic neurons. […]
The Morris water maze test can measure the changes in cognitive and memory ability. […] A camera with a display system was placed above the water maze, and the computer automatically tracked the timing and recorded the swimming track. […] The videos of the swimming path were recorded by the camera and computer, and the time of finding the platform from the entry point, namely the latency of escaping to the platform, was recorded. […] If they could not find and climb onto the platform in 90 seconds, the mice were artificially guided to find the platform and stay on the platform for 10 seconds, and the latency was recorded as 90 seconds. […] The latency was calculated on the average of four training sessions per day. […]

chronic MPTP mouse model [2] = assay: Traction test in chronic MPTP mouse model; assay type: in vivo, C57/BL mice
Description: Injection was implemented every 3.5 days for 5 weeks. MPTP was converted into metabolite MPP^+ by monoamine oxidase B in glial cells after crossing the blood-brain barrier. Due to its high affinity for dopamine transporters, MPP^+ can easily enter dopaminergic neurons. By inhibiting the toxic effect of the mitochondrial complex I, it can cause oxidative stress and break intracellular calcium homeostasis, thus causing the apoptosis or necrosis of dopaminergic neurons, and finally achieving the goal of simulating PD. Probenecid was used to prevent the rapid clearance and excretion of MPTP in the brain and kidneys. In the process of model preparation, the amount of probenecid had no significant influence on the content of the dopamine in the brain. After modeling, the mice were administrated (p.o.) with the drug for one month. The two forepaws of the mice were suspended on a horizontal metal wire (5 mm in diameter and 30 cm from the ground), and the time for mice to fall from the metal wire was recorded, wherein a time over 60 seconds was counted as 60 seconds. The mice were trained twice a day before the test. […] Finally, the scores were calculated and the time for the mice to fall from the metal wire were recorded, wherein a time over 60 seconds was counted as 60 seconds.

Row | Structure (SMILES) | cognitive function of PD model animals (water maze latency) (chronic MPTP mouse model [1]) | suspension time compared with the chronic MPTP model control group (chronic MPTP mouse model [2]; Compound A 25 mg/kg/d p.o. for one month after modeling) | suspension score compared with the chronic MPTP model control group (chronic MPTP mouse model [2]; Compound A 25 mg/kg/d p.o. for one month, FIG. 1) | suspension time compared with the chronic MPTP model control group (chronic MPTP mouse model [2]; Compound A 100 mg/kg/d p.o. for one month after modeling) | muscle strength and coordination (conclusion) (chronic MPTP mouse model [2]; chronic MPTP mouse model, dose not given) | suspension time compared with the chronic MPTP model (chronic MPTP mouse model [2]; Pramipexol 0.075 mg/kg/d p.o. for one month after modeling)
1 | Cc1c(O)c(O)cc[n+]1[C@@H](CO)Cc1ccccc1 [Compound A, (R)-3,4-dihydroxyl-N-(1′-benzyl-2′-hydroxyethyl)-2-methyl pyridine chloride] | may improve the cognitive function; also recorded: partially improve the cognitive function | no significant difference | increased | no significant difference | tendency to improve muscle strength and coordination | 
2 | CCCN[C@H]1CCc2nc(N)sc2C1 [Pramipexol, reference compound] |  |  |  |  |  | decreased
